According to patent publication US20120107284A1, “Stem cells for transplantation and methods for production thereof” (priority 2006, published 2012):

What was measured:
[1] = system: firefly luciferase activity, controlled by cTA2^D-5; assay: Dual Tet-system reporter assay, firefly luciferase, HeLa HLRF33/1141 cotransfected with cTA2D-5 and rtTA2s-M24C5G; format: cell-based; settings: HeLa cells (HLRF33/1141), 24 h incubation, 1 μg/ml
Procedure: (§1) B: Regulatory properties. HeLa cells (HLRF33/1141) were cotransfected with two plasmids encoding the transregulators cTA2^D-5 and rtTA2^s-M24C5G. Reporter gene expression was scored after 24 h incubation with 1 μg/ml of either cmt3 or dox or both. Luciferase activities were determined from cell extracts and represent the means of triplicate samples with standard deviations given in arbitrary light units (ALU; defined as relative light units per mg of total cell protein corrected for transfection efficiency). Expression of Renilla luciferase controlled by rtTA2^s-M24C5G is increased about 1000-fold and only in the presence of dox (columns 3 and 4). Addition of cmt3 leads to a ˜100-fold decrease in firefly luciferase activity, controlled by cTA2^D-5 (columns 2 and 4), while expression of firefly luciferase is only slightly, less than 2-fold, reduced in the presence of dox. […] The regulatory system is thus functional and can be used for target gene expression in NCSCs.
(§2) Recently two transcription factors have been constructed—cTA2^D-5 and rtTA2^s-M24C5G—with exclusive specificities for DNA binding (wt TRE/4C5G TRE), effector recognition (cmt3/dox) and homodimer formation (class D/class B) (Dr. Christian Berens, Erlangen University). All these components were tested for the first time in eukaryotic cells to determine their regulatory properties (C. Berens, unpublished). […]

[2] = system: Renilla luciferase controlled by rtTA2^s-M24C5G; assay: Dual Tet-system reporter assay, Renilla luciferase, HeLa HLRF33/1141 cotransfected with cTA2D-5 and rtTA2s-M24C5G; format: cell-based; settings: HeLa cells (HLRF33/1141), 24 h incubation, 1 μg/ml
Procedure: as §1, §2

[3] = system: dorsal root ganglion neurons; assay: Functionality of the Tet-system in vivo: DOX to pregnant Sox10-rtTA mice mated with TRE-Aml1/Runx1 males; settings: [Sox10-rtTA+TRE-Aml1/Runx1] pups; DOX in drinking water during pregnancy days 7-8 and 11.5-14
From the text: FIG. 8. Abnormalities in offspring of pregnant Sox10-rtTA mice which had been mated with TRE-Aml1/Runx1 males and treated with DOX during pregnancy days 7-8 and 11.5-14. Pups with the genotype [Sox10-rtTA+TRE-Aml1/Runx1] are smaller than normal and display pigment defects (upper left), megacolon (lower left), and a reduced size of dorsal root ganglia (upper and lower right).
FIG. 9. The number of dorsal root ganglion neurons is reduced compared to control (1) by about 50% in [Sox10-rtTA+TRE-Aml1/Runx1] pups from Sox10-rtTA mice, which hade been mated with TRE-Aml1/Runx1 males, and treated with DOX during pregnancy days 7-8 and 11.5-14 (2).
The functionality of the Tet-system in vivo was first confirmed. Sox10-rtTA female mice were bred with TRE-Aml1A/Runx1 males and DOX was given in the drinking water to the pregnant females pregnancy days 7 to 8 and 11.5 to 14, which correspond to the period NCSC migration. […] The number of DRG neurons was reduced by about 50% (FIG. 9).

Row | Compound | Decrease in firefly luciferase activity controlled by cTA2^D-5 [1] | Increase in expression of Renilla luciferase controlled by rtTA2^s-M24C5G [2] | Reduction of the number of dorsal root ganglion neurons compared to control [3]
1 | NC(=O)C1=C(O)C[C@@H]2C[C@@H]3Cc4cccc(O)c4C(=O)C3=C(O)[C@]2(O)C1=O [cmt3] | ~100 fold |  | 
2 | C[C@H]1c2cccc(O)c2C(=O)C2=C(O)[C@]3(O)C(=O)C(C(N)=O)=C(O)[C@@H](N(C)C)[C@@H]3[C@@H](O)[C@@H]21 [DOX, doxycycline] | less than 2 fold | about 1000 fold | about 50%
